Results reported in publication PMC7265341, “Quantifying CDK inhibitor selectivity in live cells” (Nature Communications, 2020).
Read-outs that look alike come from different tables or passages of the source.

How the values were obtained:
CDK3/Cyclin E1 = CDK3/Cyclin E1 (Homo sapiens, UniProt Q00526); test: NanoBRET live-cell target engagement, CDK3-NanoLuc/Cyclin E1 in HEK-293; format: binding; details: 10µM, read-out: CDK3/E1 Inhibition at 10µM (%)
CDK14/Cyclin Y = CDK14/Cyclin Y (Homo sapiens, UniProt O94921); test: NanoBRET live-cell target engagement, CDK14-NanoLuc/Cyclin Y in HEK-293; format: binding; details: 10µM, read-out: CDK14/Y Inhibition at 10µM (%)
CDK4/Cyclin D1 = CDK4/Cyclin D1 (Homo sapiens, UniProt P11802); test: NanoBRET live-cell target engagement, NanoLuc-CDK4/Cyclin D1 in HEK-293; format: binding; details: 10µM, read-out: CDK4/D1 Inhibition at 10µM (%)
CDK9/Cyclin K = CDK9/Cyclin K (Homo sapiens, UniProt P50750); test: NanoBRET live-cell target engagement, NanoLuc-CDK9/Cyclin K in HEK-293; format: binding; details: 10µM, read-out: CDK9/K Inhibition at 10µM (%)
CDK7 = CDK7 (Homo sapiens, UniProt P50613); test: NanoBRET live-cell target engagement, NanoLuc-CDK7 in HEK-293; format: binding; details: read-out: CDK7 Inhibition at 10µM (%), 10µM
CDK5/CDK5R1 = CDK5/CDK5R1 (Homo sapiens, UniProt Q00535); test: NanoBRET live-cell target engagement, CDK5-NanoLuc/CDK5R1 in HEK-293; format: binding; details: 10µM, read-out: CDK5/CDK5R1 Inhibition at 10µM (%)
CDK5/CDK5R1, sequence (Q00535 whole entry): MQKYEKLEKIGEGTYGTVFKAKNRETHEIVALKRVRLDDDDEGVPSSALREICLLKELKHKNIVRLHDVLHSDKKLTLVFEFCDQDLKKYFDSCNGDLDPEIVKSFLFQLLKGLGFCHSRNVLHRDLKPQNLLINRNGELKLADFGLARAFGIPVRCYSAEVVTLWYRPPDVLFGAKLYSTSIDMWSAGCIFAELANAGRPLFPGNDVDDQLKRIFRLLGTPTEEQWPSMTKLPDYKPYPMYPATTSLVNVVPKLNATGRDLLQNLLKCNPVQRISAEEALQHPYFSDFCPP
CDK5/CDK5R1, sequence (Q15078 whole entry partner): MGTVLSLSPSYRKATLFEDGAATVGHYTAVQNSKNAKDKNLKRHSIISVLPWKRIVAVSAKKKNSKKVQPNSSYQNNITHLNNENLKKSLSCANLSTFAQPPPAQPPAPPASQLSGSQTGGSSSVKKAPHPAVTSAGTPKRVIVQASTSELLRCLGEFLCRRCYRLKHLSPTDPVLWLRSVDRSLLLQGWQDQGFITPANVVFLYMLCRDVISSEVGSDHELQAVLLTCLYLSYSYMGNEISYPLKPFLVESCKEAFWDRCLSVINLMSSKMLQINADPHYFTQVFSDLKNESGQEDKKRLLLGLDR

CDK6/Cyclin D1 = CDK6/Cyclin D1 (Homo sapiens, UniProt Q00534); test: NanoBRET live-cell target engagement, NanoLuc-CDK6/Cyclin D1 in HEK-293; format: binding; details: 10µM, read-out: CDK6/D1 Inhibition at 10µM (%)
CDK6/Cyclin D1, sequence (Q00534 whole entry): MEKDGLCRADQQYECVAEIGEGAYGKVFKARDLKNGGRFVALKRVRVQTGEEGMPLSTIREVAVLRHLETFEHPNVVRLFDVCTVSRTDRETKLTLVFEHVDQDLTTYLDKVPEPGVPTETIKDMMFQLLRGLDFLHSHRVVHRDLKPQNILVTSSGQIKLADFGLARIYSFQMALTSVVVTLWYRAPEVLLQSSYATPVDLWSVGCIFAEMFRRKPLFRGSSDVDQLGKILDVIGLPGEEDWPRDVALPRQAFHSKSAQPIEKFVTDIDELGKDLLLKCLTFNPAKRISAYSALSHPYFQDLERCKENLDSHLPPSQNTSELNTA
CDK6/Cyclin D1, sequence (P24385 whole entry partner): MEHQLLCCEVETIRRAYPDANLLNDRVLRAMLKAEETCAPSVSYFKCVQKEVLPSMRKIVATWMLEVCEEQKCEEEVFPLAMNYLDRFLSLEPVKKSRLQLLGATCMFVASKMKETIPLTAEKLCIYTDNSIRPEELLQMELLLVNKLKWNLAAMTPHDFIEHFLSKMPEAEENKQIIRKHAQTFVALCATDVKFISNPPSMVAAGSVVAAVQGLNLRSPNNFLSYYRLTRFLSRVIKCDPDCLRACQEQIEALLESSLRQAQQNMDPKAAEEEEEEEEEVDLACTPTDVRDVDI

CDK15/Cyclin Y = CDK15/Cyclin Y (Homo sapiens, UniProt Q96Q40); test: NanoBRET live-cell target engagement, NanoLuc-CDK15/Cyclin Y in HEK-293; format: binding; details: 10µM, read-out: CDK15/Y Inhibition at 10µM (%)
CDK2/Cyclin E1 = CDK2/Cyclin E1 (Homo sapiens, UniProt P24941); test: NanoBRET live-cell target engagement, CDK2-NanoLuc/Cyclin E1 in HEK-293; format: binding; details: 10µM, read-out: CDK2/E1 Inhibition at 10µM (%)
CDK17/Cyclin Y = CDK17/Cyclin Y (Homo sapiens, UniProt Q00537); test: NanoBRET live-cell target engagement, CDK17-NanoLuc/Cyclin Y in HEK-293; format: binding; details: 10µM, read-out: CDK17/Y Inhibition at 10µM (%)
CDK17/Cyclin Y, sequence (Q00537 whole entry): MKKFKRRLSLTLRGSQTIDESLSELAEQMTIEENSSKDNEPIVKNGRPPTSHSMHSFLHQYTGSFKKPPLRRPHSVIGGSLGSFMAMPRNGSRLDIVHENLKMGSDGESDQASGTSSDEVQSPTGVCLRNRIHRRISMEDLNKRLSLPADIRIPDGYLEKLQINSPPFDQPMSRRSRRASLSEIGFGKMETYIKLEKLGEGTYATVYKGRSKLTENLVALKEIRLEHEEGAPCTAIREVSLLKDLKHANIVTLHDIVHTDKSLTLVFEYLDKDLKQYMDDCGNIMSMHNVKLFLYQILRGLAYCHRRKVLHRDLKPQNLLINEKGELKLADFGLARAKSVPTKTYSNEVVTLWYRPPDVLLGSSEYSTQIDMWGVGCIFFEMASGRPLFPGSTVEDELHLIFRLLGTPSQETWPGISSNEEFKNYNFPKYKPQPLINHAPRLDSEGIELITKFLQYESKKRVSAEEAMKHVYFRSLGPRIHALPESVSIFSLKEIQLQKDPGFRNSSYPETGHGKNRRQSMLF
CDK17/Cyclin Y, sequence (Q8ND76 whole entry partner): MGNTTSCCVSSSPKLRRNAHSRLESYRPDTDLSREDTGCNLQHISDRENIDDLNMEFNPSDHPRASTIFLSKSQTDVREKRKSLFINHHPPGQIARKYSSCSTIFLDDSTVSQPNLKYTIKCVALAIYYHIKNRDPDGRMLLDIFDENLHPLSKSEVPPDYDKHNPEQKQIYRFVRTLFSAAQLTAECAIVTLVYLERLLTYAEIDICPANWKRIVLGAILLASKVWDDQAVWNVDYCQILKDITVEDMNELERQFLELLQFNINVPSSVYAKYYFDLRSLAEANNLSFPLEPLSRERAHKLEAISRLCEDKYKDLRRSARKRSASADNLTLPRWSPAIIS

CDK11B/Cyclin L2 = CDK11B/Cyclin L2 (Homo sapiens, UniProt P21127); test: NanoBRET live-cell target engagement, CDK11B-NanoLuc/Cyclin L2 in HEK-293; format: binding; details: 10µM, read-out: CDK11b/L2 Inhibition at 10µM (%)
CDK13/Cyclin K = CDK13/Cyclin K (Homo sapiens, UniProt Q14004); test: NanoBRET live-cell target engagement, CDK13-NanoLuc/Cyclin K in HEK-293; format: binding; details: for inhibition at 10 µM: read-out: CDK13/K Inhibition at 10µM (%)
CDK20/Cyclin H = CDK20/Cyclin H (Homo sapiens, UniProt Q8IZL9); test: NanoBRET live-cell target engagement, NanoLuc-CDK20/Cyclin H in HEK-293; format: binding; details: 10µM, read-out: CDK20/H Inhibition at 10µM (%)
CDK8/Cyclin C = CDK8/Cyclin C (Homo sapiens, UniProt P49336); test: NanoBRET live-cell target engagement, NanoLuc-CDK8/Cyclin C in HEK-293; format: binding; details: 10µM, read-out: CDK8/C Inhibition at 10µM (%)
CDK8/Cyclin C, sequence (P49336 whole entry): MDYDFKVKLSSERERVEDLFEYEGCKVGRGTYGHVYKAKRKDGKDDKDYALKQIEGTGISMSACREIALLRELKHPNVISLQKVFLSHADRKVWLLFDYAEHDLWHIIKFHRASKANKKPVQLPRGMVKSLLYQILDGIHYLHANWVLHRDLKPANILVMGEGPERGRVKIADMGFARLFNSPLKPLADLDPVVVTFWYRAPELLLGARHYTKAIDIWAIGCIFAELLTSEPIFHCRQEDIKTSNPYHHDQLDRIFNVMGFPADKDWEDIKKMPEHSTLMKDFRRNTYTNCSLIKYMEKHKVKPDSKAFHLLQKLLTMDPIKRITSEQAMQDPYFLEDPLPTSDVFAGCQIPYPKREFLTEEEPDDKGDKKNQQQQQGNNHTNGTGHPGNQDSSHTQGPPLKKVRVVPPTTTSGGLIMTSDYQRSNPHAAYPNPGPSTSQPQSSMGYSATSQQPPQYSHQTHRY
CDK8/Cyclin C, sequence (P24863 whole entry partner): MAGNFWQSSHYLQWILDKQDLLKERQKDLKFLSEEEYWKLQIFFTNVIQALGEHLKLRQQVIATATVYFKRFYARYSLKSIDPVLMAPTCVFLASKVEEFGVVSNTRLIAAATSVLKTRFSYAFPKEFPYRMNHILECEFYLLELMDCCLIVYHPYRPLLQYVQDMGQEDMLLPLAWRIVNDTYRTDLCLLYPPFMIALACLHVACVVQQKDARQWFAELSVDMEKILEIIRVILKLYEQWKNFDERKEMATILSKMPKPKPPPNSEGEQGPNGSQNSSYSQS

CDK10/Cyclin L2 = CDK10/Cyclin L2 (Homo sapiens, UniProt Q15131); test: NanoBRET live-cell target engagement, CDK10-NanoLuc/Cyclin L2 in HEK-293; details: read-out: CDK10/L2 Inhibition at 10µM (%), 10µM
CDK10/Cyclin L2, sequence (Q15131 whole entry): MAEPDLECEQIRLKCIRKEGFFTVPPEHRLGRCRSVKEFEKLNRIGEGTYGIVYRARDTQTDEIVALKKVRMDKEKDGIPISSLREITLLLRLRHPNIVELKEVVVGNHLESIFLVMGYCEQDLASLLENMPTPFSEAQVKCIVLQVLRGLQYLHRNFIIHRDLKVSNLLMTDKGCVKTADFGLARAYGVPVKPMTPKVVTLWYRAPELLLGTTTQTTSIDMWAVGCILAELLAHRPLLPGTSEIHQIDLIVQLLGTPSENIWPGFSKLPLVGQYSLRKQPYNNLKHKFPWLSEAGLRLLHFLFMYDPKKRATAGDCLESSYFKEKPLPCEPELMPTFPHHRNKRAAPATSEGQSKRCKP

CDK18/Cyclin Y = CDK18/Cyclin Y (Homo sapiens, UniProt Q07002); test: NanoBRET live-cell target engagement, CDK18-NanoLuc/Cyclin Y in HEK-293; format: binding; details: 10µM, read-out: CDK18/Y Inhibition at 10µM (%)
CDK16/Cyclin Y = CDK16/Cyclin Y (Homo sapiens, UniProt Q00536); test: NanoBRET live-cell target engagement, CDK16-NanoLuc/Cyclin Y in HEK-293; format: binding; details: 10µM, read-out: CDK16/Y Inhibition at 10µM (%)
CDK12/Cyclin K = CDK12/Cyclin K (Homo sapiens, UniProt Q9NYV4); test: NanoBRET live-cell target engagement, CDK12-NanoLuc/Cyclin K in HEK-293; format: binding; details: for inhibition at 10 µM: read-out: CDK12/K Inhibition at 10µM (%)
CDK19/Cyclin C = CDK19/Cyclin C (Homo sapiens, UniProt Q9BWU1); test: NanoBRET live-cell target engagement, NanoLuc-CDK19/Cyclin C in HEK-293; details: read-out: CDK19/C Inhibition at 10µM (%), 10µM
CDK19/Cyclin C, sequence (Q9BWU1 whole entry): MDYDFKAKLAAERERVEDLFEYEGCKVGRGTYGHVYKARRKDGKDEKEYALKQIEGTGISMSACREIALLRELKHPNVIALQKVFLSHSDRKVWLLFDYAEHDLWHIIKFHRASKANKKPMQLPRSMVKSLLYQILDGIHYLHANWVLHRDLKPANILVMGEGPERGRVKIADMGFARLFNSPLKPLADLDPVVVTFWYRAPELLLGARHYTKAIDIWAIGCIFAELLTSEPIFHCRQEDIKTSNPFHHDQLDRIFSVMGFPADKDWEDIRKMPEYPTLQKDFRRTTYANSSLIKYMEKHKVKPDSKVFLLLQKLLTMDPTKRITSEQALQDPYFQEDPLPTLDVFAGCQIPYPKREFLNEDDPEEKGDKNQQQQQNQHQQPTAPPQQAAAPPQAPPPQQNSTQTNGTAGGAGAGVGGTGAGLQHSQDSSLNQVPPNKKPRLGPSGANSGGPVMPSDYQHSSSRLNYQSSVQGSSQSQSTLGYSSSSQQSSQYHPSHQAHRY
CDK19/Cyclin C, sequence (P24863 whole entry partner): as the sequence (P24863 whole entry partner) above

CDK1/Cyclin E1 = CDK1/Cyclin E1 (Homo sapiens, UniProt P06493); test: NanoBRET live-cell target engagement, CDK1-NanoLuc/Cyclin E1 in HEK-293; format: binding; details: 10µM, read-out: CDK1/E1 Inhibition at 10µM (%)
CDK1/Cyclin E1, sequence (P06493 whole entry): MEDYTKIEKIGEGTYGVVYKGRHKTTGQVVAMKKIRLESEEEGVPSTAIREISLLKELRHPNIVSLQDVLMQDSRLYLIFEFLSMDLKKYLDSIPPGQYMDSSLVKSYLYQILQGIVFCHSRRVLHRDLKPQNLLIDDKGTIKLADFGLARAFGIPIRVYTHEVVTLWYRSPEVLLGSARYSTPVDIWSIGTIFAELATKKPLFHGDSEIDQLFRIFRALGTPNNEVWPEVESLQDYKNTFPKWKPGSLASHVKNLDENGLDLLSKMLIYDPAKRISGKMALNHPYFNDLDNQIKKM
CDK1/Cyclin E1, sequence (P24864 whole entry partner): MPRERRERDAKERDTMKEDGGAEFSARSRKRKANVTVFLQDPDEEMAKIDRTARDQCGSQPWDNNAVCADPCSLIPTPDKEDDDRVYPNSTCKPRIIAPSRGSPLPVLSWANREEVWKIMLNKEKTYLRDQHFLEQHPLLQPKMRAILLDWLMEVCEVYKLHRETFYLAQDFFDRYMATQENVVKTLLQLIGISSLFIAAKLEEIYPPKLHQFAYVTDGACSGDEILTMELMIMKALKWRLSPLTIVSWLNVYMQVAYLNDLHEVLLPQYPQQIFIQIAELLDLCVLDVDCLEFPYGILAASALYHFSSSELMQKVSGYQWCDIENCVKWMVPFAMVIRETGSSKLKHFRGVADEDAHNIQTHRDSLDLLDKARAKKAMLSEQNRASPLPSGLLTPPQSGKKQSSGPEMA

CDK3/Cyclin E1, sequence (Q00526 whole entry): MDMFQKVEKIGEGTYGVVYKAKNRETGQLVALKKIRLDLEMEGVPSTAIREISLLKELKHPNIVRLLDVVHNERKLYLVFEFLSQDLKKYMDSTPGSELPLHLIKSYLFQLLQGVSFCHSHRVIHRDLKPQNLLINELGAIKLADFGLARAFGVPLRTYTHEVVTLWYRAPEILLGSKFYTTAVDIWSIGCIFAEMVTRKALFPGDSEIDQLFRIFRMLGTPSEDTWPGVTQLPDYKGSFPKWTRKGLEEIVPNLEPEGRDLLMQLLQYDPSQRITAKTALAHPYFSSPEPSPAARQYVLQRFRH
CDK3/Cyclin E1, sequence (P24864 whole entry partner): as the sequence (P24864 whole entry partner) above

## CN(C)C/C=C/C(=O)Nc1ccc(C(=O)N2CCC[C@@H](Nc3ncc(Cl)c(-c4c[nH]c5ccccc45)n3)C2)cc1 [THZ531]
CDK3/Cyclin E1; average of experiments
  inhibition at 10 µM: 61.1%
CDK3/Cyclin E1; independent experiment 1
  inhibition at 10 µM: 57.1%
CDK3/Cyclin E1; independent experiment 2
  inhibition at 10 µM: 65.2%
CDK14/Cyclin Y; average of experiments
  inhibition at 10 µM: 41.8%
CDK14/Cyclin Y; independent experiment 1
  inhibition at 10 µM: 22.4%
CDK14/Cyclin Y; independent experiment 2
  inhibition at 10 µM: 61.2%
CDK4/Cyclin D1; average of experiments
  inhibition at 10 µM: 54.6%
CDK4/Cyclin D1; independent experiment 1
  inhibition at 10 µM: 47.7%
CDK4/Cyclin D1; independent experiment 2
  inhibition at 10 µM: 61.5%
CDK9/Cyclin K; average of experiments
  inhibition at 10 µM: 81.1%
CDK9/Cyclin K; independent experiment 1
  inhibition at 10 µM: 78.5%
CDK9/Cyclin K; independent experiment 2
  inhibition at 10 µM: 83.8%
CDK7; average of experiments
  inhibition at 10 µM: 78.1%
CDK7; independent experiment 1
  inhibition at 10 µM: 74.8%
CDK7; independent experiment 2
  inhibition at 10 µM: 81.5%
CDK5/CDK5R1; average of experiments
  inhibition at 10 µM: 45.3%
CDK5/CDK5R1; independent experiment 1
  inhibition at 10 µM: 30.8%
CDK5/CDK5R1; independent experiment 2
  inhibition at 10 µM: 59.9%
CDK6/Cyclin D1; average of experiments
  inhibition at 10 µM: 36.6%
CDK6/Cyclin D1; independent experiment 1
  inhibition at 10 µM: 32%
CDK6/Cyclin D1; independent experiment 2
  inhibition at 10 µM: 41.3%
CDK15/Cyclin Y; average of experiments
  inhibition at 10 µM: 80.5%
CDK15/Cyclin Y; independent experiment 1
  inhibition at 10 µM: 75.6%
CDK15/Cyclin Y; independent experiment 2
  inhibition at 10 µM: 85.5%
CDK2/Cyclin E1; average of experiments
  inhibition at 10 µM: 52.7%
CDK2/Cyclin E1; independent experiment 1
  inhibition at 10 µM: 46.1%
CDK2/Cyclin E1; independent experiment 2
  inhibition at 10 µM: 59.3%
CDK17/Cyclin Y; average of experiments
  inhibition at 10 µM: 63%
CDK17/Cyclin Y; independent experiment 1
  inhibition at 10 µM: 73.4%
CDK17/Cyclin Y; independent experiment 2
  inhibition at 10 µM: 52.6%
CDK11B/Cyclin L2; average of experiments
  inhibition at 10 µM: 32.4%
CDK11B/Cyclin L2; independent experiment 1
  inhibition at 10 µM: 30%
CDK11B/Cyclin L2; independent experiment 2
  inhibition at 10 µM: 34.7%
CDK13/Cyclin K; average of experiments
  inhibition at 10 µM: 53.1%
CDK13/Cyclin K; independent experiment 1
  inhibition at 10 µM: 48.6%
CDK13/Cyclin K; independent experiment 2
  inhibition at 10 µM: 57.6%
CDK13/Cyclin K; live HEK-293, response to reviewers, read-out: CDK13 IC50 (follow up)
  IC50: ~2000 nM
CDK13/Cyclin K; primary screen, live HEK-293
  CDK13 occupancy at 10 µM: occupied
  receptor occupancy at 10 µM: ~50%
CDK20/Cyclin H; independent experiment 1
  inhibition at 10 µM: 30.9%
CDK20/Cyclin H; independent experiment 2
  inhibition at 10 µM: 52.4%
CDK8/Cyclin C; average of experiments
  inhibition at 10 µM: 41%
CDK8/Cyclin C; independent experiment 1
  inhibition at 10 µM: 30.9%
CDK8/Cyclin C; independent experiment 2
  inhibition at 10 µM: 51.2%
CDK10/Cyclin L2; average of experiments
  inhibition at 10 µM: 51%
CDK10/Cyclin L2; independent experiment 1
  inhibition at 10 µM: 41.2%
CDK10/Cyclin L2; independent experiment 2
  inhibition at 10 µM: 60.7%
CDK18/Cyclin Y; average of experiments
  inhibition at 10 µM: 64.6%
CDK18/Cyclin Y; independent experiment 1
  inhibition at 10 µM: 71.7%
CDK18/Cyclin Y; independent experiment 2
  inhibition at 10 µM: 57.6%
CDK16/Cyclin Y; independent experiment 1
  inhibition at 10 µM: 75.1%
CDK16/Cyclin Y; independent experiment 2
  inhibition at 10 µM: 49.9%
CDK12/Cyclin K; average of experiments
  inhibition at 10 µM: 65.1%
CDK12/Cyclin K; independent experiment 1
  inhibition at 10 µM: 75.9%
CDK12/Cyclin K; independent experiment 2
  inhibition at 10 µM: 54.3%
CDK12/Cyclin K; independent experiment 1, read-out: CDK12/K IC50
  IC50: 540 nM
CDK12/Cyclin K; independent experiment 2, read-out: CDK12/K IC50
  IC50: 1000 nM
CDK12/Cyclin K; live HEK-293, 2 h, mean ± S.E.M. (n=3) or mean (n=2), read-out: IC50 for CDK/cyclin complexes, CDK12/K
  IC50: 770 nM
CDK12/Cyclin K; live HEK-293, read-out: CDK12 engagement potency
  IC50: < 1000 nM
CDK12/Cyclin K; primary screen, live HEK-293
  CDK12 occupancy at 10 µM: occupied
CDK12/Cyclin K; read-out: CDK12 occupancy at 10 µM
  receptor occupancy at 10 µM: ~50%
CDK19/Cyclin C; average of experiments
  inhibition at 10 µM: 55.3%
CDK19/Cyclin C; independent experiment 1
  inhibition at 10 µM: 58.1%
CDK19/Cyclin C; independent experiment 2
  inhibition at 10 µM: 52.6%
CDK1/Cyclin E1; average of experiments
  inhibition at 10 µM: 61.4%
CDK1/Cyclin E1; independent experiment 1
  inhibition at 10 µM: 48.6%
CDK1/Cyclin E1; independent experiment 2
  inhibition at 10 µM: 74.1%
